Measurements as given in PubChem BioAssay (NCI).
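How tested: cells in 96-well plates exposed to compound for 48 hours at five concentrations. GI50 = concentration required for 50% inhibition of growth. TGI denotes the concentration required for complete inhibition of growth.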

Experiments:
Test in all cases: DTP human tumour cell line panel, 48 h
[1] = test system: SN12C renal
[2] = test system: HL-60(TB) leukemia
[3] = test system: UACC-257 melanoma
[4] = test system: IGROV1 ovarian
[5] = test system: TK-10 renal
[6] = test system: OVCAR-8 ovarian
[7] = test system: RPMI-8226 leukemia
[8] = test system: SF-268 CNS
[9] = test system: KM12 colon
[10] = test system: A498 renal
[11] = test system: MDA-MB-231 breast
[12] = test system: SF-295 CNS
[13] = test system: PC-3 prostate
[14] = test system: MALME-3M melanoma
[15] = test system: SF-539 CNS
[16] = test system: HT29 colon
[17] = test system: OVCAR-3 ovarian
[18] = test system: BT-549 breast
[19] = test system: SK-MEL-2 melanoma
[20] = test system: 786-0 renal
[21] = test system: M14 melanoma
[22] = test system: HCT-116 colon
[23] = test system: SK-MEL-28 melanoma
[24] = test system: RXF 393 renal
[25] = test system: SNB-19 CNS
[26] = test system: NCI-H460 lung
[27] = test system: HOP-62 NSCLC
[28] = test system: OVCAR-4 ovarian
[29] = test system: MOLT-4 leukemia
[30] = test system: NCI-H226 lung
[31] = test system: ACHN renal
[32] = test system: HCC-2998 colon
[33] = test system: MDA-MB-435
[34] = test system: HS 578T breast
[35] = test system: UACC-62 melanoma
[36] = test system: OVCAR-5 ovarian
[37] = test system: HOP-92 NSCLC
[38] = test system: MCF7 breast
[39] = test system: T-47D breast
[40] = test system: A549 NSCLC
[41] = test system: COLO 205 colon
[42] = test system: SNB-75 CNS
[43] = test system: SR leukemia
[44] = test system: UO-31 renal
[45] = test system: HCT-15 colon
[46] = test system: SK-MEL-5 melanoma
[47] = test system: NCI-H23 lung
[48] = test system: DU-145 prostate
[49] = test system: SW-620 colon
[50] = test system: K-562 leukemia
[51] = test system: U251 CNS
[52] = test system: CCRF-CEM leukemia
[53] = test system: CAKI-1 renal
[54] = test system: SK-OV-3 ovarian
[55] = test system: NCI/ADR-RES ovarian
[56] = test system: LOX IMVI melanoma
[57] = test system: EKVX NSCLC

CN(C)c1ccc2nc3ccc(=N)cc-3sc2c1
GI50 [1]: 2.37 µM
TGI [1]: 8.06 µM
GI50 [2]: 7.53 µM
TGI [2]: 32.9 µM
GI50 [3]: 2.6 µM
TGI [3]: 9.71 µM
GI50 [4]: 8.59 µM
TGI [4]: 35.9 µM
GI50 [5]: 7.76 µM
TGI [5]: 31.4 µM
GI50 [6]: 2.14 µM
TGI [6]: 12 µM
GI50 [7]: 1.21 µM
TGI [7]: 25.7 µM
GI50 [8]: 4.13 µM
TGI [8]: 20 µM
GI50 [9]: 3.67 µM
TGI [9]: 21.7 µM
GI50 [10]: 2.02 µM
TGI [10]: 39.5 µM
GI50 [11]: 1.88 µM
TGI [11]: 11.8 µM
GI50 [12]: 5.98 µM
TGI [12]: 21.2 µM
GI50 [13]: 1.03 µM
TGI [13]: 14.2 µM
GI50 [14]: 2.26 µM
TGI [14]: 7.67 µM
GI50 [15]: 2.2 µM
TGI [15]: 5.12 µM
GI50 [16]: 21.6 µM
TGI [16]: 63.5 µM
GI50 [17]: 2.75 µM
TGI [17]: 12 µM
GI50 [18]: 7.74 µM
TGI [18]: 69 µM
GI50 [19]: 9.24 µM
TGI [19]: 26.8 µM
GI50 [20]: 11.8 µM
TGI [20]: 28.7 µM
GI50 [21]: 3.9 µM
TGI [21]: 14.3 µM
GI50 [22]: 2.38 µM
TGI [22]: 12.5 µM
GI50 [23]: 11.9 µM
TGI [23]: 27.7 µM
GI50 [24]: 10.4 µM
TGI [24]: 26.8 µM
GI50 [25]: 2.86 µM
TGI [25]: 21.1 µM
GI50 [26]: 7.06 µM
TGI [26]: > 100 µM
GI50 [27]: 6.87 µM
TGI [27]: 51.5 µM
GI50 [28]: 1.04 µM
TGI [28]: 2.47 µM
GI50 [29]: 3.47 µM
TGI [29]: > 100 µM
GI50 [30]: 12.1 µM
TGI [30]: 28.8 µM
GI50 [31]: 5.43 µM
TGI [31]: 39.8 µM
GI50 [32]: 8.39 µM
TGI [32]: > 100 µM
GI50 [33]: 1.75 µM
TGI [33]: 3.63 µM
GI50 [34]: 11.4 µM
TGI [34]: 39.5 µM
GI50 [35]: 2.66 µM
TGI [35]: 8.19 µM
GI50 [36]: 11 µM
TGI [36]: 29.4 µM
GI50 [37]: 3.79 µM
TGI [37]: 41.6 µM
GI50 [38]: 1.91 µM
TGI [38]: 6.29 µM
GI50 [39]: 3.63 µM
TGI [39]: 21.3 µM
GI50 [40]: 2.37 µM
TGI [40]: 13.9 µM
GI50 [41]: 2.73 µM
TGI [41]: 10.3 µM
GI50 [42]: 3.29 µM
TGI [42]: 15.4 µM
GI50 [43]: 6.86 µM
TGI [43]: > 100 µM
GI50 [44]: 11.6 µM
TGI [44]: 31.2 µM
GI50 [45]: 3.07 µM
TGI [45]: 24.4 µM
GI50 [46]: 1.51 µM
TGI [46]: 5.78 µM
GI50 [47]: 3.3 µM
TGI [47]: 49.5 µM
GI50 [48]: 14.3 µM
TGI [48]: 28.3 µM
GI50 [49]: 2.83 µM
TGI [49]: 12.9 µM
GI50 [50]: 2.61 µM
TGI [50]: > 100 µM
GI50 [51]: 2.71 µM
TGI [51]: 10.5 µM
GI50 [52]: 2.15 µM
TGI [52]: > 100 µM
GI50 [53]: 4.21 µM
TGI [53]: 19.3 µM
GI50 [54]: 10.6 µM
TGI [54]: 38.7 µM
GI50 [55]: 3.11 µM
TGI [55]: 48.3 µM

CCN(CC)c1ccc(N=O)cc1
GI50 [1]: 4.24 µM
TGI [1]: 17.2 µM
GI50 [2]: 2.85 µM
TGI [2]: 13.6 µM
GI50 [3]: 1.82 µM
TGI [3]: 4.15 µM
GI50 [4]: 2.05 µM
TGI [4]: 6.41 µM
GI50 [5]: 2.79 µM
TGI [5]: 10.8 µM
GI50 [6]: 3.14 µM
TGI [6]: 12.3 µM
GI50 [7]: 2.09 µM
TGI [7]: 6.33 µM
GI50 [8]: 5.53 µM
TGI [8]: 20.9 µM
GI50 [9]: 3.39 µM
TGI [9]: 13.1 µM
GI50 [10]: 13.6 µM
TGI [10]: 38.5 µM
GI50 [11]: 5.29 µM
TGI [11]: 20.9 µM
GI50 [12]: 4.87 µM
TGI [12]: 20.5 µM
GI50 [13]: 3.14 µM
TGI [13]: 12.1 µM
GI50 [14]: 1.59 µM
TGI [14]: 4.46 µM
GI50 [15]: 2.96 µM
TGI [15]: 10.1 µM
GI50 [16]: 1.27 µM
TGI [16]: 4.3 µM
GI50 [17]: 1.97 µM
TGI [17]: 4.61 µM
GI50 [18]: 16.6 µM
TGI [18]: 30.5 µM
GI50 [19]: 8.39 µM
TGI [19]: 22 µM
GI50 [20]: 7.46 µM
TGI [20]: 23.6 µM
GI50 [21]: 3.47 µM
TGI [21]: 14.4 µM
GI50 [22]: 1.82 µM
TGI [22]: 4.71 µM
GI50 [23]: 10.7 µM
TGI [23]: 23 µM
GI50 [24]: 2.46 µM
TGI [24]: 7.45 µM
GI50 [25]: 12.8 µM
TGI [25]: 29.9 µM
GI50 [26]: 5.12 µM
TGI [26]: 34.2 µM
GI50 [27]: 2.78 µM
TGI [27]: 11.8 µM
GI50 [28]: 3.26 µM
TGI [28]: 13.5 µM
GI50 [29]: 3.34 µM
TGI [29]: 30.1 µM
GI50 [30]: 13.6 µM
TGI [30]: 38.4 µM
GI50 [31]: 2.61 µM
TGI [31]: 11.1 µM
GI50 [33]: 2.72 µM
TGI [33]: 11.9 µM
GI50 [34]: 10.2 µM
TGI [34]: > 100 µM
GI50 [35]: 6.66 µM
TGI [35]: 23.5 µM
GI50 [56]: 1.67 µM
TGI [56]: 3.53 µM
GI50 [36]: 3.51 µM
TGI [36]: 14.3 µM
GI50 [37]: 2.18 µM
TGI [37]: 7.73 µM
GI50 [38]: 2.76 µM
TGI [38]: 11.8 µM
GI50 [39]: 2.89 µM
TGI [39]: 16.7 µM
GI50 [40]: 2.07 µM
TGI [40]: 5.56 µM
GI50 [41]: 1.98 µM
TGI [41]: 5.46 µM
GI50 [42]: 3.47 µM
TGI [42]: 16.9 µM
GI50 [43]: 3.74 µM
TGI [43]: 46.2 µM
GI50 [44]: 1.21 µM
TGI [44]: 3.81 µM
GI50 [45]: 2.26 µM
TGI [45]: 12.8 µM
GI50 [46]: 2.47 µM
TGI [46]: 7.38 µM
GI50 [57]: 10.2 µM
TGI [57]: 26.8 µM
GI50 [47]: 1.95 µM
TGI [47]: 5.32 µM
GI50 [48]: 6.43 µM
TGI [48]: 19.9 µM
GI50 [49]: 1.71 µM
TGI [49]: 5.53 µM
GI50 [50]: 2.23 µM
TGI [50]: 15.9 µM
GI50 [51]: 1.14 µM
TGI [51]: 2.73 µM
GI50 [52]: 0.937 µM
TGI [52]: 13 µM
GI50 [53]: 1.29 µM
TGI [53]: 3.83 µM
GI50 [54]: 12.4 µM
TGI [54]: 29.3 µM
GI50 [55]: 2.33 µM
TGI [55]: 7 µM
